Reference: US8927533B2, “Thio derivatives bearing lactams as potent HDAC inhibitors and their uses as medicaments” (SIGMA-TAU Industrie Farmaceutiche Riunite S.p.A., priority 2011, dated 2015)

Experiments:
[1] = system: NCI-H460 non-small cell lung carcinoma cells; test: Cytotoxicity, sulphorodamine B, H460; settings: Homo sapiens, NCI-H460, read-out: H460 cell line IC50 (μM)
Method: (§2) The plates were incubated for 24 h at 37° C., after which they were washed 3 times by removal of the supernatant and addition of PBS. The plates were then incubated for further 48 h at 37° C. 200 μl PBS and 50 μl of cold 80% TCA were added and the plates were incubated on ice for at least 1 h. TCA was removed and the plates were washed 3 times by immersion in distilled-water. They were then dried on paper at 40° C. for 5 min. 200 μl of 0.4% sulphorodamine B in 1% acetic acid were added. The plates were incubated at room temperature for further 30 min. Sulphorodamine B was removed, and the plates were washed 3 times by immersion in 1% acetic acid and were dried on paper and at 40° C. for 5 min. Then 200 μl Tris 10 mM were added. The plates were kept under magnetic stirring for 20 min. Cell survival was determined by means of optical density by a Multiskan spectrofluorimeter at 540 nm. The amount of cells killed was calculated as the percentage decrease in sulphorodamine B binding compared to control cultures.

[2] = system: HCT116 colon cancer cells; test: Cytotoxicity, sulphorodamine B, HCT116; settings: Homo sapiens, HCT-116, read-out: HCT116 cell line IC50 (μM)
Method: as §2

HCT116 colon cancer = test: Antitumour activity, HCT116 xenograft, oral (Example 49); type: in vivo, mice; settings: 100 mg/10 ml/kg p.o., PEG200/DMSO/Cremophor EL
From the text: (§1) The experiment of example 48 was repeated with another compound on mice animal model developing HCT116 colon cancer as described above or A2780 ovarian cancer, and administering the drugs solubilised in orally in PEG200/DMSO/Cremophor EL (Sigma): 85/10/5 (volume percentage).

NCI-H460 NSCLC = test: Antitumour activity, NCI-H460 xenograft (Example 48)
Method: (§3) The tested derivatives were administered as a suspension in PBS/DMSO/Cremophor EL (Sigma): 85/10/5 (volume percentage). The antitumour activity was determined by measuring tumour diameters with a Vernier calliper according to the Formula TV=d^2×D/2
(§4) where d and D are the shortest and longest diameters, respectively.
(§5) When tumours reached a volume of about 1000 mm^3, mice were sacrificed by cervical dislocation. The efficacy of the drug was assessed as the tumour volume inhibition according to the Formula reported underneath:
(§6) Body weight recording was carried out to evaluate body weight loss as calculated in the equation underneath:
(§7) Wherein BW day x corresponds to the mean weight at day x of the experiment meanwhile BW day 1 corresponds to the mean weight at the first day of the experiment.

[3] = system: K562 chronic myeloid leukemia cells; test: Cytotoxicity extended panel, K562; type: cell-based; settings: Homo sapiens, suspension cells, 72 h
Method: Cells were seeded in 96-well tissue culture plates at approximately 10% confluence. They were allowed to attach and recover for at least 24 h. Compounds of the present invention were then added to each well at various concentrations in order to define cell survival inhibition IC50. The plates were incubated for 72 h at 37° C., after which time they were washed 3 times by removal of the supernatant. 200 μl of PBS and 50 μl of cold 80% TCA were added and the plates were incubated on ice for at least 1 h. TCA was removed and the plates were washed 3 times by immersion in distilled water. They were then dried on paper at 40° C. for 5 min. 200 μl of 0.4% sulphorodamine B in 1% acetic acid were added. The plates were incubated at room temperature for further 30 min. Sulphorodamine B was removed, and the plates were washed 3 times by immersion in 1% acetic acid and were dried on paper at 40° C. for 5 min. Then 200 μl Tris 10 mM were added. The plates were kept under magnetic stirring for 20 min. Cell survival was determined by means of optical density by a Multiskan spectrofluorimeter at 540 nm. The amount of cells killed was calculated as the percentage decrease in sulphorodamine B binding compared to control cultures. The IC50 values (reported in Table 5) were calculated with the “ALLFIT” program. […]

[4] = system: HCT116 colon cancer cells; test: Antitumour activity, HCT116 xenograft (Example 48); type: in vivo, CD1 nude mice; settings: 100 mg/10 ml/kg p.o., qd×5/w×3w
Method: as §3, §4, §5, §6, §7

A2780 ovarian cancer = test: Antitumour activity, A2780 xenograft, oral (Example 49); type: in vivo, mice; settings: 100 mg/10 ml/kg p.o., PEG200/DMSO/Cremophor EL
From the text: as §1

[5] = system: H929 multiple myeloma cells; test: Antitumour activity, H929 xenograft (Example 48); type: in vivo, CD1 nude mice; settings: 100 mg/10 ml/kg i.p., qd×5/w×3w
Method: as §3, §4, §5, §6, §7

[6] = 100 mg/10 ml/kg i.p., qd×5/w×3w

CC(=O)SCCCCC[C@H](NC(=O)[C@@H]1CCC(=O)N1)C(=O)Nc1ccccc1 [Example 11, Thioacetic acid S—{(S)-6-[((S)-5-oxo-pyrrolidine-2-carbonyl)-amino]-6-phenylcarbamoyl-hexyl}ester]
IC50 [1]: < 0.5 µM

CC(=O)SCCCCC[C@H](NC(=O)[C@H]1CCCC(=O)N1)C(=O)Nc1ccccc1 [Example 13, Thioacetic acid S—{(S)-6-[((R)-6-oxo-piperidine-2-carbonyl)-amino]-6-phenylcarbamoyl-hexyl}ester]
IC50 [1]: < 0.5 µM

CC(=O)SCCCCC[C@H](NC(=O)[C@@H]1CC=CC(=O)N1)C(=O)Nc1ccccc1 [Example 10, Thioacetic acid S—{(S)-6-[((S)-6-oxo-1,2,3,6-tetrahydro-pyridine-2-carbonyl)-amino]-6-phenylcarbamoyl-hexyl}ester]
IC50 [1]: < 0.5 µM

CC(=O)SCCCCC[C@H](NC(=O)[C@@H]1CCCC(=O)N1)C(=O)NCCc1cccc(C)c1 [Example 5, Thioacetic acid S—[(S)-6-[((S)-6-oxo-piperidine-2-carbonyl)-amino]-6-(2-m-tolyl-ethylcarbamoyl)-hexyl]ester]
IC50 [1]: 1 to 10 µM

CC(=O)SCCCCC[C@H](NC(=O)[C@@H]1CCCC(=O)N1)C(=O)Nc1cccc(C)c1 [Example 16, Thioacetic acid S—{(S)-6-[((S)-6-oxo-piperidine-2-carbonyl)-amino]-6-m-tolylcarbamoyl-hexyl}ester]
IC50 [1]: < 0.5 µM

CC(=O)SCCCCC[C@H](NC(=O)[C@H]1C(=O)NC[C@H]1c1ccccc1)C(=O)Nc1ccccc1 (relative stereo) [Example 20, Thioacetic acid S—{(S)-6-[((3R*,4R*)-2-oxo-4-phenyl-pyrrolidine-3-carbonyl)-amino]-6-phenylcarbamoyl-hexyl}ester]
IC50 [2]: 0.5 to 1 µM

CC(=O)SCCCCC[C@H](NC(=O)[C@@H]1CCCC(=O)N1)C(=O)NC1CCCC1 [Example 17, Thioacetic acid S—{(S)-6-[((S)-6-oxo-piperidine-2-carbonyl)-amino]-6-cyclopentylcarbamoyl-hexyl}ester]
IC50 [2]: 1 to 10 µM

CC(=O)SCCCCC[C@H](NC(=O)[C@H]1CCC(=O)N1)C(=O)Nc1cccc(C(F)(F)F)c1 [Example 18, Thioacetic acid S—[(S)-6-[((R)-5-oxo-pyrrolidine-2-carbonyl)-amino]-6-(3-trifluoromethyl-phenylcarbamoyl)-hexyl]ester]
IC50 [1]: < 0.5 µM

CC(=O)SCCCCC[C@H](NC(=O)[C@@H]1CC(=O)N1)C(=O)Nc1ccccc1 [Example 1, Thioacetic acid S—{(S)-6-[((S)-4-oxo-azetidine-2-carbonyl)-amino]-6-phenylcarbamoyl-hexyl}ester]
IC50 [1]: < 0.5 µM

CCOC(=S)OCCCCC[C@H](NC(=O)[C@H]1CCC(=O)N1)C(=O)Nc1ccccc1 [Example 42, Thiocarbonic acid ethyl ester {(S)-6-[((R)-5-oxo-pyrrolidine-2-carbonyl)-amino]-6-phenylcarbamoyl-hexyl}ester]
IC50 [1]: < 0.5 µM

CC(=O)SCCCCC[C@H](NC(=O)[C@@H]1CCCC(=O)N1)C(=O)Nc1ccc(C)cc1 [Example 15, Thioacetic acid S—{(S)-6-[((S)-6-oxo-piperidine-2-carbonyl)-amino]-6-p-tolylcarbamoyl-hexyl}ester]
IC50 [1]: < 0.5 µM

CC(=O)SCCCCCCC(=O)Nc1ccccc1 [Compound A, Thioacetic acid S-(6-phenylcarbamoyl-hexyl)ester]
BWL % (HCT116 colon cancer): 0%
TVI % (HCT116 colon cancer): 11%

CCOC(=S)OCCCCC[C@H](NC(=O)[C@@H]1CCCC(=O)N1)C(=O)Nc1ccccc1 [Example 41, Thiocarbonic acid ethyl ester {(S)-6-[((S)-6-oxo-piperidine-2-carbonyl)-amino]-6-phenylcarbamoyl-hexyl}ester]
IC50 [1]: 0.5 to 1 µM

N.N.[Cl][Pt][Cl] [Cisplatin]
TVI % (NCI-H460 NSCLC; 2 mg/10 ml/kg i.p., q4d/w×3w): 56%

CC(=O)SCCCCC[C@H](NC(=O)[C@H]1CCC(=O)N1)C(=O)Nc1cccc(C)c1 [Example 8, Thioacetic acid S—{(S)-6-[((R)-5-oxo-pyrrolidine-2-carbonyl)-amino]-6-m-tolylcarbamoyl-hexyl}ester]
IC50 [1]: < 0.5 µM

CC(=O)SCCCCC[C@H](NC(=O)[C@H]1CCC(=O)N1C)C(=O)Nc1cccc(C)c1 [Example 6, Thioacetic acid S—{(S)-6-[((R)-1-methyl-5-oxo-pyrrolidine-2-carbonyl)-amino]-6-m-tolylcarbamoyl-hexyl}ester]
IC50 [1]: < 0.5 µM

CC(=O)SCCCCC[C@H](NC(=O)[C@H]1C(=O)NC[C@@H]1c1ccccc1)C(=O)Nc1ccccc1 (relative stereo) [Example 19, Thioacetic acid S—{(S)-6-[((3R*,4S*)-2-oxo-4-phenyl-pyrrolidine-3-carbonyl)-amino]-6-phenylcarbamoyl-hexyl}ester]
IC50 [2]: < 0.5 µM
IC50 [1]: < 0.5 µM

CC(=O)SCCCCC[C@H](NC(=O)C1CCCNC1=O)C(=O)Nc1ccccc1 (stereo in doubt) [Example 22, Thioacetic acid S—{(S)-6-[(R*)-(2-oxo-piperidine-3-carbonyl)-amino]-6-phenylcarbamoyl-hexyl}ester]
IC50 [2]: 1 to 10 µM

CC(=O)SCCCCC[C@H](NC(=O)[C@@H]1CCC(=O)N1)C(=O)Nc1cccc(C)c1 [Example 7, Thioacetic acid S—{(S)-6-[((S)-5-oxo-pyrrolidine-2-carbonyl)-amino]-6-m-tolylcarbamoyl-hexyl}ester]
IC50 [1]: < 0.5 µM

O=C(CCCCCCC(=O)Nc1ccccc1)NO [SAHA, suberoylanilide hydroxamic acid, reference compound]
IC50 [3]: 0.13 µM
BWL % (HCT116 colon cancer): 1%
TVI % (HCT116 colon cancer): 32%
BWL % (NCI-H460 NSCLC; [6]): 0%
TVI % (NCI-H460 NSCLC; [6]): 27%
BWL % [4]: 0%
TVI % [4]: 47%
BWL % (A2780 ovarian cancer): 4%
TVI % (A2780 ovarian cancer): 53%
BWL % [5]: 3%
TVI % [5]: 21%

CC(C)C(=O)SCCCCC[C@H](NC(=O)[C@@H]1CCCC(=O)N1)C(=O)Nc1ccccc1 [Example 43, Thioisobutyric acid S—{(S)-6-[((S)-6-oxo-piperidine-2-carbonyl)-amino]-6-phenylcarbamoyl-hexyl}ester]
IC50 [1]: 1 to 10 µM
